Source: the supplement of paper PMC9265050, “Inhibition of RNA Binding in SND1 Increases the Levels of miR-1-3p and Sensitizes Cancer Cells to Navitoclax” (Cancers, 2022)

Test system: SW480
Assay: drug sensitivity score (DSS, integrated dose-response area); higher = more sensitive (stronger viability reduction); extreme values may be limits of the assay
Procedure, shortened: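 The drug sensitivity score is the integrated area under a fitted non-linear dose–response model. It was derived from SW480 cells with doxycycline-inducible control or SND1-targeting shRNA, induced with 0.1 µg/mL doxycycline for 7 days and plated at 1000 cells per well on 384-well plates of 525 commercially available small-molecule inhibitors at five concentrations. CellTiter-Glo measured viability after 72 h.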

[1] = shRNA: SND1 shRNA1 (SND1 silenced)
[2] = shRNA: SND1 shRNA2 (SND1 silenced)
[3] = shRNA: control shRNA (non-targeting)

SMILES	drug sensitivity score [1] [DSS]	drug sensitivity score [2] [DSS]	drug sensitivity score [3] [DSS]
O=C(/C=C/c1cccc(S(=O)(=O)Nc2ccccc2)c1)NO [Belinostat]	16.4	13.8	12.7
Cn1c(CCCC(=O)O)nc2cc(N(CCCl)CCCl)ccc21 [Bendamustine]	1.7	0.5	3.5
N#CC(c1ccnc(OCc2ccc(CN3CCOCC3)cc2)n1)c1nc2ccccc2s1 (stereo not given) [Bentamapimod]	2.3	–	4
C=C(c1ccc(C(=O)O)cc1)c1cc2c(cc1C)C(C)(C)CCC2(C)C [Bexarotene]	0	0	0
CC(O)(CS(=O)(=O)c1ccc(F)cc1)C(=O)Nc1ccc(C#N)c(C(F)(F)F)c1 (stereo not given) [Bicalutamide]	0.4	0.3	1.4
CCNC(=O)CCC/C=C\C[C@@H]1[C@@H](/C=C/[C@@H](O)CCc2ccccc2)[C@H](O)C[C@@H]1O [Bimatoprost]	0	0	0
Cn1cnc2c(F)c(Nc3ccc(Br)cc3F)c(C(=O)NOCCO)cc21 [Binimetinib]	11.9	6.6	6.6
CC[C@H](NC(=O)[C@H](C)NC)C(=O)N1C[C@@H](O)C[C@H]1Cc1c(-c2[nH]c3cc(F)ccc3c2C[C@@H]2C[C@H](O)CN2C(=O)[C@H](CC)NC(=O)[C@H](C)NC)[nH]c2cc(F)ccc12 [Birinapant]	0	0	0
Cc1c(N)nc([C@H](CC(N)=O)NC[C@H](N)C(N)=O)nc1C(=O)N[C@H](C(=O)N[C@H](C)[C@@H](O)[C@H](C)C(=O)N[C@H](C(=O)NCCc1nc(-c2nc(C(=O)NCCC[S+](C)C)cs2)cs1)[C@@H](C)O)[C@@H](OC1OC(CO)C(O)C(O)C1OC1OC(CO)C(O)C(OC(N)=O)C1O)c1cnc[nH]1 (stereo not given in full) [Bleomycin]	4.8	5.4	4.2
CC(C)C[C@H](NC(=O)[C@H](Cc1ccccc1)NC(=O)c1cnccn1)B(O)O [Bortezomib]	28.8	28.1	28.7
COc1cc(Nc2c(C#N)cnc3cc(OCCCN4CCN(C)CC4)c(OC)cc23)c(Cl)cc1Cl [Bosutinib]	9.2	7.3	8
Cc1cc2c(F)c(Oc3ncnn4cc(OC[C@@H](C)O)c(C)c34)ccc2[nH]1 [Brivanib]	0	0	0
CCC/C=C/C=C/C(=O)O[C@H]1/C(=C/C(=O)OC)C[C@H]2C[C@H]([C@@H](C)O)OC(=O)C[C@H](O)C[C@@H]3C[C@H](OC(C)=O)C(C)(C)[C@](O)(C[C@@H]4C/C(=C/C(=O)OC)C[C@H](/C=C/C(C)(C)[C@]1(O)O2)O4)O3 [Bryostatin 1]	1.7	0.6	0
Nc1cc(C(F)(F)F)c(-c2cc(N3CCOCC3)nc(N3CCOCC3)n2)cn1 [Buparlisib]	8.9	7.7	5.9
CS(=O)(=O)OCCCCOS(C)(=O)=O [Busulfan]	0	1.4	1.5
O=C(O)CCCCC(CCSCc1ccccc1)SCc1ccccc1 (stereo not given) [CPI-613]	0	–	0
C#Cc1cccc(Nc2ncnc3cc(OC)c(OCCCCCCC(=O)NO)cc23)c1 [CUDC-101]	11.3	12.6	10.7
CN(C)c1cc2c(cc1Sc1nc3c(N)nccc3n1CCNCC(C)(C)C)OCO2 [CUDC-305]	13.3	13.1	14.9

SMILES	drug sensitivity score [1] [DSS]	drug sensitivity score [2] [DSS]	drug sensitivity score [3] [DSS]
COc1ccc(-c2nc(N3CCOCC3)c3sc(CN(C)c4ncc(C(=O)NO)cn4)cc3n2)cn1 [CUDC-907]	40.7	33.9	34.2
Cc1nc(N)sc1-c1ccnc(Nc2ccc(N3CCOCC3)cc2)n1 [CYC-116]	9.3	–	8.8
CO[C@H]1C(=O)[C@]2(C)[C@@H](OC)C[C@H]3OC[C@@]3(OC(C)=O)[C@H]2[C@H](OC(=O)c2ccccc2)[C@]2(O)C[C@H](OC(=O)[C@H](O)[C@@H](NC(=O)OC(C)(C)C)c3ccccc3)C(C)=C1C2(C)C [Cabazitaxel]	18.7	14.6	20.3
COc1cc2nccc(Oc3ccc(NC(=O)C4(C(=O)Nc5ccc(F)cc5)CC4)cc3)c2cc1OC [Cabozantinib]	0	2.7	0.6
CC[C@@]1(O)C(=O)OCc2c1cc1n(c2=O)Cc2cc3ccccc3nc2-1 [Camptothecin]	18.4	10.3	12.6
C=CC(=O)Nc1cc2c(Nc3ccc(F)c(Cl)c3)ncnc2cc1OCCCN1CCOCC1 [Canertinib]	7	6.2	8.6
CCCCCOC(=O)Nc1nc(=O)n([C@@H]2O[C@H](C)[C@@H](O)[C@H]2O)cc1F [Capecitabine]	0	0	0
O=C(O)C1(C(=O)O)CCC1.[NH2-].[NH2-].[Pt+2] [Carboplatin]	1	–	0.5
CC(C)C[C@H](NC(=O)[C@H](CCc1ccccc1)NC(=O)CN1CCOCC1)C(=O)N[C@@H](Cc1ccccc1)C(=O)N[C@@H](CC(C)C)C(=O)[C@@]1(C)CO1 [Carfilzomib]	22.9	24.5	24.6
O=NN(CCCl)C(=O)NCCCl [Carmustine]	0	0	0.4
COc1cc2c(Oc3ccc4[nH]c(C)cc4c3F)ncnc2cc1OCCCN1CCCC1 [Cediranib]	6.1	5.1	4.3
Cc1ccc(-c2cc(C(F)(F)F)nn2-c2ccc(S(N)(=O)=O)cc2)cc1 [Celecoxib]	0	0	0
CCS(=O)(=O)N1CCN(c2ccc(Nc3ncc(C(N)=O)c(NC4CC4)n3)cc2)CC1 [Cerdulatinib]	7.8	6.6	9.3
Cc1cc(Nc2ncc(Cl)c(Nc3ccccc3S(=O)(=O)C(C)C)n2)c(OC(C)C)cc1C1CCNCC1 [Ceritinib]	2.1	0.8	0.2
O=C(O)CCCc1ccc(N(CCCl)CCCl)cc1 [Chlorambucil]	0	0	0
CCN(CC)CCCC(C)Nc1ccnc2cc(Cl)ccc12 (stereo not given) [Chloroquine]	14.9	–	11.6
CC(C)[C@H]1C(=O)N[C@@H](CCCNC(=N)N)C(=O)NCC(=O)N[C@@H](CC(=O)O)C(=O)N[C@H](Cc2ccccc2)C(=O)N1C [Cilengitide]	0	0	0
